{
  "source": "patent US11199497B2",
  "about": "“Fluorescent compounds as sensing agents” (OHIO NORTHERN UNIVERSITY, priority 2016, dated 2021)",
  "key": {"[1]": {"assay": "Emission spectrum on exposure to varying amounts of (NH4)2Fe(SO4)2.6H2O", "procedure": "Compound 11 was dissolved in methanol and then exposed to varying amounts of FeCl3 (i.e., Fe^3+) or (NH4)2Fe(SO4)2.6H2O (i.e., Fe^2+). […] Therefore, Compound 11 may be used to detect Fe^3+ while in the presence of Fe^2+."}, "[2]": {"assay": "Shift in emission spectrum on exposure to varying amounts of FeCl3", "conditions": "for red-shift in peak emission wavelength / Fe^3+ ions at which shift in emission spectrum is saturated: FeCl3; for total red-shift in peak emission wavelength: FeCl3, at saturation", "procedure": "Two substituted chromones (Compound 11 and Compound 20) were dissolved in methanol and exposed to varying amounts of FeCl3 (i.e., Fe^3+). FIG. 4 illustrates the shift in emission spectrum of Compound 11 with increasing amounts of Fe^3+ ions. With about 10 equivalents of Fe^3+ ions, the shift in emission spectrum is saturated, with a total of about a 30 nm red-shift in peak emission wavelength. FIG. 5 illustrates the shift in emission spectrum of Compound 20 with increasing amounts of Fe^3+ ions. With about 10 equivalents of Fe^3+ ions, the shift in emission spectrum is saturated, with a total of about a 50 nm red-shift in peak emission wavelength.\nCompound 11 was dissolved in various solvents and then exposed to varying amounts of FeCl3 (i.e., Fe^3+). […]"}, "[3]": {"assay": "Emission spectrum on exposure to varying amounts of Pb(NO3)2 in different solvents", "procedure": "Compound 20 was dissolved in methanol and then exposed to varying amounts of Pb(NO3)2 (i.e., Pb^2+). […] Therefore, a kit, method, system, or the like may utilize a specific solvent system for detection of lead or other ions. Alternatively, and especially where the metal ion concentration is unknown, a kit, method, system, or the like may utilize a series of solvent systems in parallel to determine a concentration of metal ions.\nA 5 μM sample of Compound 25 in 3:1 tetrahydrofuran:methanol or 2:1 tetrahydrofuran:methanol was prepared and exposed to varying amounts of Pb(NO3)2 (i.e., Pb^2+) dissolved in deionized water."}, "[4]": {"assay": "Ion selectivity, visual inspection when excited at 365 nm", "conditions": "3:1 tetrahydrofuran:methanol", "procedure": "Compound 25 was dissolved in 3:1 tetrahydrofuran:methanol and then exposed to varying amounts of Zn/SO4 (i.e., Zn^2+), (NH4)2Fe(SO4)2.6H2O (i.e., Fe^2+), Fe2O3 (i.e., Fe^3+), CuSO4 (i.e., Cu^2+), or Pb(NO3)2 (i.e., Pb^2+) each in deionized water. Upon visual inspection when excited at 365 nm, the sample exposed to Pb^2+turned green while all other samples remained blue."}, "[5]": {"assay": "Detection of lead in methanol extract of soil sample", "conditions": "methanol filtrate diluted in 3:1 tetrahydrofuran:methanol", "procedure": "A lead-free soil sample was collected, placed into a Buchner funnel, and soaked with 1 mL of 0.15 M Pb(NO3)2 in water to introduce lead to the soil. As a control sample, the same was performed with the lead-free soil without exposure to Pb^2+. After soaking, the soil samples were washed with 50 mL of methanol. A sample from each filtrate was diluted in 3:1 tetrahydrofuran:methanol and exposed to Compound 25. […] This example illustrates that the substituted chromones described herein may be useful in detecting ions from soil extracts."}, "[6]": {"assay": "Extraction of lead from water with octanol and triethylamine", "conditions": "3 mM Pb(NO3)2 in deionized water, 1 equivalent triethylamine", "procedure": "A 3 mM Pb(NO3)2 sample was prepared in deionized water and Compound 25 was added to give a green fluorescence. The lead was then extracted from the water using either 1-octanol or 2-octanol each with 1 equivalent (relative to Compound 25) of triethylamine, which turned the octanol portion green. After washing thrice with 1-octanol, 99% of the Pb^2+had been extracted from the water. After washing twice with 2-octanol, 83% of the Pb^2+had been extracted from the water."}, "[7]": {"assay": "Visual detection limit of Pb(NO3)2 (color change blue to green)", "conditions": "5 μM compound in 3:1 tetrahydrofuran:methanol, Pb(NO3)2 in deionized water", "procedure": "The detection limit Pb(NO3)2 (i.e., Pb^2+) for Compound 25 in 3:1 tetrahydrofuran:methanol was tested by exposing samples of 5 μM Compound 25 to ever decreasing concentrations of Pb(NO3)2 dissolved in deionized water.\nA 40 mM solution of Pb(NO3)2 (i.e., Pb^2+) was prepared in tap water and then diluted with 3:1 tetrahydrofuran:methanol to a lead concentration of 133 μM. The resultant sample was added to solutions of 5 μM sample of Compound 25 in 3:1 tetrahydrofuran:methanol. […] This example illustrates that the lead detection can be performed using tap water, which includes a variety of other ions."}},
  "data": [
    {"smiles": "COC(=O)C(C)(C)C1Oc2ccc(OC)cc2C(=O)/C1=C\\O", "note": "(centres unmarked) [Compound 11, (Z)-methyl-2-(3-(hydroxymethylene)-6-methoxy-4-oxochroman-2-yl)-2-methylpropanoate]", "values": [
      {"measurement": "intensity change for the peak emission wavelength with increasing metal ion concentration", "setting": "[1]; methanol (FIG. 6)", "value": "intensity decrease"},
      {"measurement": "shift of peak emission wavelength", "setting": "[1]; methanol, (NH4)2Fe(SO4)2.6H2O (FIG. 6)", "value": "does not exhibit appreciable shift"},
      {"measurement": "red-shift in peak emission wavelength", "setting": "[2]; 1:1 methanol:water", "value": "still exhibits a red-shift in peak emission wavelength"},
      {"measurement": "intensity change for the peak emission wavelength with increasing metal ion concentration", "setting": "[2]; methanol (FIG. 4)", "value": "intensity decrease"},
      {"measurement": "Fe^3+ ions at which shift in emission spectrum is saturated", "setting": "[2]; methanol", "value": "about 10 equivalents"},
      {"measurement": "shift of peak emission wavelength", "setting": "[2]; methanol, FeCl3 (FIG. 4)", "value": "significant red-shift"},
      {"measurement": "total red-shift in peak emission wavelength", "setting": "[2]; methanol", "value": "~30", "unit": "nm"},
      {"measurement": "red-shift in peak emission wavelength", "setting": "[2]; polar aprotic solvents such as tetrahydrofuran, acetonitrile, acetone", "value": "did not exhibit an appreciable red-shift"},
      {"measurement": "red-shift in peak emission wavelength", "setting": "[2]; polar protic solvents like water, methanol and mixtures thereof", "value": "exhibited an appreciable red-shift"}
    ]},
    {"smiles": "CCc1ccc2c(c1)C(=O)/C(=C\\NS(=O)(=O)c1ccc(C)cc1)C(C(C)(C)C(=O)OC)O2", "note": "(centres unmarked) [Compound 20, (Z)-methyl 2-(6-ethyl-3-((4-methylphenylsulfonamido)meth-ylene)-4-oxochroman-2-yl)-2-methylpropanoate]", "values": [
      {"measurement": "red-shift in peak emission wavelength", "setting": "[2]; 1:1 methanol:water", "value": "does not"},
      {"measurement": "Fe^3+ ions at which shift in emission spectrum is saturated", "setting": "[2]; methanol", "value": "about 10 equivalents"},
      {"measurement": "total red-shift in peak emission wavelength", "setting": "[2]; methanol", "value": "~50", "unit": "nm"},
      {"measurement": "Pb^2+ at max shift in peak emission wavelength", "setting": "[3]; 1:1 tetrahydrofuran:methanol", "value": "about 5 equivalents"},
      {"measurement": "Pb^2+ at max shift in peak emission wavelength", "setting": "[3]; 3:1 tetrahydrofuran:methanol", "value": "about 3 equivalents"},
      {"measurement": "shift in peak emission wavelength", "setting": "[3]; THF alone", "value": "no appreciable shift"},
      {"measurement": "Pb^2+ at which shift in peak emission wavelength maxes out", "setting": "[3]; methanol", "value": 10, "unit": "equivalents"},
      {"measurement": "change of peak emission wavelength in the presence of Pb^2+", "setting": "[3]; methanol, 1:1 and 3:1 tetrahydrofuran:methanol, tetrahydrofuran (FIGS. 7-10), degree depends on solvent", "value": "red-shift and intensity decrease"},
      {"measurement": "shift in peak emission wavelength at 1 equivalent Pb^2+", "setting": "[3]; mixed tetrahydrofuran/methanol", "value": "does have an appreciable shift"}
    ]},
    {"smiles": "COC(=O)C(C)(C)C1Oc2ccc(OC)cc2C(=O)/C1=C\\NS(=O)(=O)c1ccc(OC)cc1", "note": "(centres unmarked) [Compound 25, (Z)methyl-2-(6-methoxy-3-(((4-methoxyphenyl)sulfonamido)methylene)-4-oxochroman-2-yl)-2-methylpropanoate]", "values": [
      {"measurement": "fluorescence color of sample", "setting": "[4]; (NH4)2Fe(SO4)2.6H2O in deionized water", "value": "remained blue"},
      {"measurement": "fluorescence color of sample", "setting": "[4]; CuSO4 in deionized water", "value": "remained blue"},
      {"measurement": "fluorescence color of sample", "setting": "[4]; Fe2O3 in deionized water", "value": "remained blue"},
      {"measurement": "fluorescence color of sample", "setting": "[4]; Pb(NO3)2 in deionized water", "value": "turned green"},
      {"measurement": "fluorescence color of sample", "setting": "[4]; Zn/SO4 in deionized water", "value": "remained blue"},
      {"measurement": "color change with extract from soil sample exposed to Pb^2+", "setting": "[5]", "value": "color change from blue to green"},
      {"measurement": "Pb^2+ extracted from the water", "setting": "[6]; washing thrice with 1-octanol", "value": 99, "unit": "%"},
      {"measurement": "Pb^2+ extracted from the water", "setting": "[6]; washing twice with 2-octanol", "value": 83, "unit": "%"},
      {"measurement": "speed of color change observed", "setting": "[7]", "value": "almost instantaneous"},
      {"measurement": "visual change of fluorescence in the presence of Pb^2+", "setting": "[3]; 5 μM compound, 3:1 or 2:1 tetrahydrofuran:methanol", "value": "from blue to green"},
      {"measurement": "change of peak emission wavelength in the presence of Pb^2+", "setting": "[3]; 5 μM compound, 3:1 or 2:1 tetrahydrofuran:methanol, excitation 370 nm (FIGS. 11-12)", "value": "red-shift and intensity decrease"}
    ]}
  ]
}
